The nature of series [1]: Pharmacokinetic test, single oral dose, plasma LC-MS/MS. The format is in vivo. To be noted: mouse, male ICR mice; for half-life: read-out: half-life T1/2 (converted); for Cmax: read-out: peak concentration Cmax; for Tmax: read-out: peak time Tmax. The procedure:
Test Method: Three ICR mice (male) were used for each compound, with five groups in total. Mice were treated with a single oral dose of 10 mg/kg or 5 mg/kg. For each mouse, blood samples were collected at 0.25, 0.5, 1, 2, 4, and 8 hours after administration. Whole blood samples were placed in test tubes containing EDTA-K2, inverted up and down several times, and then centrifuged at 6000 rpm, 4°C for 15 minutes to obtain plasma. The concentration of the compound in plasma samples was determined using the LC-MS/MS method. Table 4 Pharmacokinetic Results of Different Compounds

A short description of series [2]: in vitro. To be noted: microsomes, pH 7.4. The procedure:
Phosphate buffer preparation: Weigh 7.098 g of disodium hydrogen phosphate, add 500 mL of pure water and dissolve by ultrasonication to obtain a disodium hydrogen phosphate solution. Weigh 3.400 g of potassium dihydrogen phosphate, add 250 mL of pure water and dissolve by ultrasonication to obtain a potassium dihydrogen phosphate solution. The disodium hydrogen phosphate solution and potassium dihydrogen phosphate solution were mixed and adjusted to pH 7.4+0.2.
10 mM NADPH preparation: Weigh an appropriate amount of NADPH (reduced coenzyme II), freshly prepare a 10 mM working solution with phosphate buffer, and the final concentration is 1 mM.
Incubation system preparation: Prepare the suspension into the incubation plate according to Table 5, and pre-incubate in a 37°C water bath for 10 min. Table 5 Incubation System Preparation
2 µL of positive control or test compound working solution was added to 358 µL of the incubation system, mixed uniformly by vortexing, and all samples were prepared in duplicate. 40 µL of 10 mM NADPH was added to the system, mixed uniformly by low-speed vortexing, and the reaction timing was started. […] Centrifuge at 4700 rpm, 4°C for 15 minutes to precipitate proteins. Transfer 100 µL of the supernatant to the sample plate, add 100 µL of pure water and mix well for UPLC-MS/MS analysis. Table 6 Liver Microsome Stability Results

Series [3] has as its target T1, RBP4 (Mus musculus, UniProt Q00724).
T1 construct: from tissue; host or cells: plasma of ICR male mice
Kind of series: Plasma RBP4 content detection test (ELISA) after single oral dose. The format is in vivo, ICR male mice. The conditions noted are these: 5 mg/kg oral, maximum reduction within 5 to 24 hours vs 0-hour value. The procedure: Test Method: ICR male mice aged 7 to 8 weeks were adaptively fed for 3 to 7 days and randomly divided into groups (4 mice per group), and fasted for 12 hours before the test. Orbital venous blood samples were collected and plasma was separated before administration on the test day (0-hour value as the initial content). Then, test compounds at a dose of 1 mg/kg or 5 mg/kg were orally administered (vehicle: 5% DMSO + 10% cyclodextrin), and vehicle (5% DMSO + 10% cyclodextrin) was orally administered as a control group. Orbital venous blood samples were collected and plasma was separated at 5, 8, 10, 12, and 24 hours after compound administration. The RBP4 content in plasma samples was detected using Mouse RBP4 (Retinol Binding Protein 4, Plasma) ELISA Kit (immunoway, KE1574), the reduction rate was calculated, and the maximum reduction rate within 5 to 24 hours was selected. Reduction rate of RBP4 content in mouse plasma at different sampling time points = (Initial RBP4 content - RBP4 content at sampling point) / Initial RBP4 content. Table 2 Plasma RBP4 Reduction Levels of Different Compounds
In general terms: ELISA stands for enzyme-linked immunosorbent assay.

Setting [4] is: in vivo, single oral dose 10 mg/kg.

Data on 17 compounds can be found in patent publication EP4813986A1, “COMPOUND FOR REDUCING SERUM CONCENTRATION OF RBP4, AND USE” (Heronova Pharmaceuticals, LLC, priority 2023, dated 2025).

SMILES strings stand for the structures. Read-outs that look alike come from different tables or passages of the source.

Usually AUC(0-t) stands for the area under the concentration-time curve up to a stated or last time point. A higher AUC(0-t) goes with high exposure. By Tmax is commonly meant the time at which the peak concentration occurs. One may read the microsomal CLint as the rate of metabolic loss divided by the concentration. Low readings indicate greater metabolic stability, high ones faster metabolism. Take `O=C(c1n[nH]c2c1COCC2)N1CC=C(c2ccc(F)c(F)c2C(F)(F)F)CC1` [Compound 17]: in series [1] (setting [4]), the AUC(0-t) stood at 17800 ng·h/mL, the half-life is 201 min, the Cmax is 2860 ng/mL and the Tmax is 108 min. Further, in series [2] (human), the half-life at 1 µM was above 180 min and the microsomal CLint at 1 µM is below 7.44 µL/min/mg. In series [2] (mouse), this compound returned a half-life at 1 µM of 36.4 min and a microsomal CLint at 1 µM of 38.1 µL/min/mg.

Take `COCC(=O)N1CCc2c(C(=O)N3CC=C(c4cccc(F)c4C(F)(F)F)CC3)n[nH]c2C1` [Compound 6]: in series [1] (single oral dose 10 mg/kg), the AUC(0-t) was 383 ng·h/mL, the half-life was 230 min, the Cmax came out at 285 ng/mL and the Tmax was determined as 30 min. Besides, in series [2] (human), the half-life at 1 µM was 63 min and the microsomal CLint at 1 µM turned out to be 22 µL/min/mg. For the same compound, in series [2] (mouse), the half-life at 1 µM amounted to 9.46 min and the microsomal CLint at 1 µM amounted to 146 µL/min/mg.

`CC(=O)N1CCc2c(C(=O)N3CC=C(c4ccc(F)c(F)c4C(F)(F)F)CC3)n[nH]c2C1` [Compound 1]: in series [3], the “Maximum Plasma RBP4 Reduction Rate (5 mg/kg dose)” value (“Maximum Plasma RBP4 Reduction Rate” for short) worked out at 41%. In addition, in series [1] (setting [4]), the AUC(0-t) amounted to 2460 ng·h/mL, the half-life is 167 min, the Cmax was 1240 ng/mL and the Tmax turned out to be 30 min. Also, in series [2] (human), the half-life at 1 µM was above 180 min and the microsomal CLint at 1 µM is below 7.44 µL/min/mg. In series [2] (mouse), this compound displayed a half-life at 1 µM of 45.9 min and a microsomal CLint at 1 µM of 30.2 µL/min/mg.

In the case of `CC(C(N)=O)C(=O)N1CCc2c(C(=O)N3CC=C(c4cccc(F)c4C(F)(F)F)CC3)n[nH]c2C1` (stereo not shown) [Compound 22], in series [3], the “Maximum Plasma RBP4 Reduction Rate” value was determined as 11%. In series [1] (single oral dose 10 mg/kg), the AUC(0-t) was determined as 13.3 ng·h/mL, the Cmax is 15.2 ng/mL and the Tmax is 30 min. In series [2] (human), the half-life at 1 µM is above 180 min and the microsomal CLint at 1 µM was below 7.44 µL/min/mg. In series [2] (mouse), this compound returned a half-life at 1 µM of 43 min and a microsomal CLint at 1 µM of 32.2 µL/min/mg.

Turning to `CC(=O)N1CCc2c(C(=O)N3CCC(c4ccc(F)c(F)c4C(F)(F)F)CC3)n[nH]c2C1` [reference compound, 1-(3-(4-(3,4-difluoro-2-(trifluoromethyl)phenyl)piperidine-1-carbonyl)-4,5-dihydro-1H-pyrazolo[3,4-c]pyridin-6(7H)-yl)ethanone, reference compound], in series [1] (single oral dose 10 mg/kg), the AUC(0-t) came out at 8830 ng·h/mL, the half-life is 92.4 min, the Cmax turned out to be 3230 ng/mL and the Tmax worked out at 40.2 min.

As for `NC(=O)CN1CCc2c(C(=O)N3CC=C(c4ccc(F)c(F)c4C(F)(F)F)CC3)n[nH]c2C1` [Compound 10], the “Maximum Plasma RBP4 Reduction Rate” value in series [3] amounted to 72%. For the same compound, in series [1] (single oral dose 10 mg/kg), the AUC(0-t) is 1200 ng·h/mL, the half-life was 113 min, the Cmax worked out at 468 ng/mL and the Tmax is 30 min. In series [2] (human), this compound returned a half-life at 1 µM above 180 min and a microsomal CLint at 1 µM below 7.44 µL/min/mg. In series [2] (mouse), this compound returned a half-life at 1 µM of 18.6 min and a microsomal CLint at 1 µM of 74.5 µL/min/mg.

With `[2H]C([2H])([2H])OCC(=O)N1CCc2c(C(=O)N3CC=C(c4ccc(F)c(F)c4C(F)(F)F)CC3)n[nH]c2C1` [Compound 9], the “Maximum Plasma RBP4 Reduction Rate” value in series [3] is on record as 82%. In addition, in series [1] (single oral dose 10 mg/kg), the AUC(0-t) came to 1030 ng·h/mL, the half-life is 40 min, the Cmax worked out at 1090 ng/mL and the Tmax worked out at 30 min. Besides, in series [2] (human), the half-life at 1 µM came to 130 min and the microsomal CLint at 1 µM amounted to 10.6 µL/min/mg. In series [2] (mouse), this compound had a half-life at 1 µM of 17.2 min and a microsomal CLint at 1 µM of 80.8 µL/min/mg.

For `O=C1NCC[C@@H]1N1CCc2c(C(=O)N3CC=C(c4cccc(F)c4C(F)(F)F)CC3)n[nH]c2C1` [Compound 20], in series [1] (single oral dose 10 mg/kg), the AUC(0-t) was 208 ng·h/mL, the half-life is 97.8 min, the Cmax was found to be 112 ng/mL and the Tmax is 30 min. In series [2] (human), the half-life at 1 µM was found to be 99 min and the microsomal CLint at 1 µM is 14 µL/min/mg. In series [2] (mouse), this compound yielded a half-life at 1 µM of 13.7 min and a microsomal CLint at 1 µM of 101 µL/min/mg.

For `COCCN1CCc2c(C(=O)N3CC=C(c4cccc(F)c4C(F)(F)F)CC3)n[nH]c2C1` [Compound 3], in series [1] (single oral dose 10 mg/kg), the AUC(0-t) is 119 ng·h/mL, the half-life was 442 min, the Cmax amounted to 159 ng/mL and the Tmax came out at 30 min. Also, in series [2] (human), the half-life at 1 µM came to 18.7 min and the microsomal CLint at 1 µM stood at 74 µL/min/mg. In series [2] (mouse), this compound returned a half-life at 1 µM of 26.3 min and a microsomal CLint at 1 µM of 52.7 µL/min/mg.

As for `[2H]C([2H])([2H])OCC(=O)N1CCc2c(C(=O)N3CC=C(c4cccc(F)c4C(F)(F)F)CC3)n[nH]c2C1` [Compound 8], in series [1] (single oral dose 10 mg/kg), the AUC(0-t) is 556 ng·h/mL, the half-life was 199 min, the Cmax was 515 ng/mL and the Tmax amounted to 30 min. In series [2] (human), this compound returned a half-life at 1 µM of 70.4 min and a microsomal CLint at 1 µM of 19.7 µL/min/mg. In series [2] (mouse), this compound yielded a half-life at 1 µM of 6.79 min and a microsomal CLint at 1 µM of 204 µL/min/mg.

Take `CC(C(N)=O)C(=O)N1CCc2c(C(=O)N3CC=C(c4ccc(F)c(F)c4C(F)(F)F)CC3)n[nH]c2C1` (stereo not shown) [Compound 19]: in series [1] (single oral dose 10 mg/kg), the AUC(0-t) was 41.9 ng·h/mL, the half-life is 119 min, the Cmax amounted to 22.3 ng/mL and the Tmax was determined as 50 min. Further, in series [2] (human), the half-life at 1 µM is above 180 min and the intrinsic clearance (microsomal CLint) at 1 µM was below 7.44 µL/min/mg. For the same compound, in series [2] (mouse), the half-life at 1 µM was found to be 74.6 min and the microsomal CLint at 1 µM stood at 18.6 µL/min/mg.

In series [2] (human), `CC(=O)N1CCc2c(C(=O)N3CC=C(c4cccc(F)c4C(F)(F)F)CC3)n[nH]c2C1` [Compound 2] showed a half-life at 1 µM of 94.4 min and a microsomal CLint at 1 µM of 14.7 µL/min/mg. Also, in series [2] (mouse), the half-life at 1 µM is 18.8 min and the microsomal CLint at 1 µM was 73.6 µL/min/mg.

As for `NC(=O)C(=O)N1CCc2c(C(=O)N3CC=C(c4ccc(F)c(F)c4C(F)(F)F)CC3)n[nH]c2C1` [Compound 16], in series [1] (single oral dose 5 mg/kg), the AUC(0-t) was 490 ng·h/mL, the half-life is 101 min, the Cmax amounted to 235 ng/mL and the Tmax amounted to 30 min. Further, in series [2] (human), the half-life at 1 µM is above 180 min and the microsomal CLint at 1 µM was below 7.44 µL/min/mg. In series [2] (mouse), this compound yielded a half-life at 1 µM above 180 min and a microsomal CLint at 1 µM below 7.44 µL/min/mg.

As for `CNC(=O)CN1CCc2c(C(=O)N3CC=C(c4ccc(F)c(F)c4C(F)(F)F)CC3)n[nH]c2C1` [Compound 11], in series [2] (human), the half-life at 1 µM was 140 min and the microsomal CLint at 1 µM came to 9.9 µL/min/mg. In series [2] (mouse), this compound came in with a half-life at 1 µM of 11.4 min and a microsomal CLint at 1 µM of 121 µL/min/mg.

In the case of `O=C(c1n[nH]c2c1COCC2)N1CC=C(c2cccc(F)c2C(F)(F)F)CC1` [Compound 23], in series [2] (human), the half-life at 1 µM was found to be 54.3 min and the microsomal CLint at 1 µM worked out at 25.5 µL/min/mg. In series [2] (mouse), this compound gave a half-life at 1 µM of 10.7 min and a microsomal CLint at 1 µM of 130 µL/min/mg.

In series [2] (human), `O=C1NCC[C@@H]1N1CCc2c(C(=O)N3CC=C(c4ccc(F)c(F)c4C(F)(F)F)CC3)n[nH]c2C1` [Compound 18] returned a half-life at 1 µM above 180 min and a microsomal CLint at 1 µM below 7.44 µL/min/mg. For the same compound, in series [2] (mouse), the half-life at 1 µM was 18.8 min and the microsomal CLint at 1 µM amounted to 73.5 µL/min/mg.

As for `CN(C)C(=O)CN1CCc2c(C(=O)N3CC=C(c4ccc(F)c(F)c4C(F)(F)F)CC3)n[nH]c2C1` [Compound 12], the half-life at 1 µM in series [2] (human) worked out at 126 min; in series [2] (mouse) it was 4.2 min. Further, the microsomal CLint at 1 µM in series [2] (human) came to 11 µL/min/mg; in series [2] (mouse), 330 µL/min/mg.
